Laboratory results as given in PubChem BioAssay (NCI).
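Dose response: 5 concentrations. Exposure: 48 h. Format: 96-well plates. Endpoint: linear interpolation; highest concentration if not reached. At the GI50, growth is halved. Definition used: TGI = concentration required for complete inhibition of growth.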

Assays:
Assay in all cases: NCI-60 cell line screen, 48 h
HCT-15 colon = test system: HCT-15 colon
SNB-19 CNS = test system: SNB-19 CNS
UACC-62 melanoma = test system: UACC-62 melanoma
SF-295 CNS = test system: SF-295 CNS
IGROV1 ovarian = test system: IGROV1 ovarian
HCC-2998 colon = test system: HCC-2998 colon
SNB-75 CNS = test system: SNB-75 CNS
NCI-H522 lung = test system: NCI-H522 lung
OVCAR-8 ovarian = test system: OVCAR-8 ovarian
OVCAR-4 ovarian = test system: OVCAR-4 ovarian
U251 CNS = test system: U251 CNS
NCI-H23 lung = test system: NCI-H23 lung
HOP-92 NSCLC = test system: HOP-92 NSCLC
SK-OV-3 ovarian = test system: SK-OV-3 ovarian
MDA-MB-231 breast = test system: MDA-MB-231 breast
HS 578T breast = test system: HS 578T breast
SN12C renal = test system: SN12C renal
LOX IMVI melanoma = test system: LOX IMVI melanoma
SK-MEL-2 melanoma = test system: SK-MEL-2 melanoma
OVCAR-5 ovarian = test system: OVCAR-5 ovarian
786-0 renal = test system: 786-0 renal
TK-10 renal = test system: TK-10 renal
CAKI-1 renal = test system: CAKI-1 renal
NCI-H226 lung = test system: NCI-H226 lung
SK-MEL-28 melanoma = test system: SK-MEL-28 melanoma
UO-31 renal = test system: UO-31 renal
ACHN renal = test system: ACHN renal
PC-3 prostate = test system: PC-3 prostate
MDA-MB-435 = test system: MDA-MB-435
T-47D breast = test system: T-47D breast
NCI/ADR-RES ovarian = test system: NCI/ADR-RES ovarian
SW-620 colon = test system: SW-620 colon
SR leukemia = test system: SR leukemia
RXF 393 renal = test system: RXF 393 renal
HL-60(TB) leukemia = test system: HL-60(TB) leukemia
HOP-62 NSCLC = test system: HOP-62 NSCLC
CCRF-CEM leukemia = test system: CCRF-CEM leukemia
OVCAR-3 ovarian = test system: OVCAR-3 ovarian
A498 renal = test system: A498 renal
SF-539 CNS = test system: SF-539 CNS
COLO 205 colon = test system: COLO 205 colon
UACC-257 melanoma = test system: UACC-257 melanoma
BT-549 breast = test system: BT-549 breast
MALME-3M melanoma = test system: MALME-3M melanoma
M14 melanoma = test system: M14 melanoma
KM12 colon = test system: KM12 colon
NCI-H460 lung = test system: NCI-H460 lung
SF-268 CNS = test system: SF-268 CNS
RPMI-8226 leukemia = test system: RPMI-8226 leukemia
MCF7 breast = test system: MCF7 breast
EKVX NSCLC = test system: EKVX NSCLC
K-562 leukemia = test system: K-562 leukemia
MOLT-4 leukemia = test system: MOLT-4 leukemia
HCT-116 colon = test system: HCT-116 colon
DU-145 prostate = test system: DU-145 prostate
A549 NSCLC = test system: A549 NSCLC
SK-MEL-5 melanoma = test system: SK-MEL-5 melanoma
HT29 colon = test system: HT29 colon

## CN(C)c1ccc(Nc2c3ccccc3nc3ccccc23)cc1
HCT-15 colon
  GI50: 959 nM
  TGI: 3.49 µM
SNB-19 CNS
  GI50: 1630 nM
  TGI: 9.32 µM
UACC-62 melanoma
  GI50: 1190 nM
  TGI: 2980 nM
SF-295 CNS
  GI50: 579 nM
  TGI: 2750 nM
IGROV1 ovarian
  GI50: 590 nM
  TGI: 2910 nM
HCC-2998 colon
  GI50: 1410 nM
  TGI: 3.93 µM
SNB-75 CNS
  GI50: 990 nM
  TGI: 4.09 µM
NCI-H522 lung
  GI50: 685 nM
  TGI: 2520 nM
OVCAR-8 ovarian
  GI50: 868 nM
  TGI: 3.25 µM
OVCAR-4 ovarian
  GI50: 1260 nM
  TGI: 5.44 µM
U251 CNS
  GI50: 1120 nM
  TGI: 2700 nM
NCI-H23 lung
  GI50: 1100 nM
  TGI: 2920 nM
HOP-92 NSCLC
  GI50: 622 nM
  TGI: 3.84 µM
SK-OV-3 ovarian
  GI50: 1270 nM
  TGI: 3.77 µM
MDA-MB-231 breast
  GI50: 1300 nM
  TGI: 3.32 µM
HS 578T breast
  GI50: 1650 nM
  TGI: 9.47 µM
SN12C renal
  GI50: 1030 nM
  TGI: 6.76 µM
LOX IMVI melanoma
  GI50: 585 nM
  TGI: 2260 nM
SK-MEL-2 melanoma
  GI50: 821 nM
  TGI: 2830 nM
OVCAR-5 ovarian
  GI50: 1540 nM
  TGI: 6.72 µM
786-0 renal
  GI50: 1290 nM
  TGI: 3.13 µM
TK-10 renal
  GI50: 937 nM
  TGI: 4.19 µM
CAKI-1 renal
  GI50: 486 nM
  TGI: 2330 nM
NCI-H226 lung
  GI50: 1040 nM
  TGI: 2680 nM
SK-MEL-28 melanoma
  GI50: 1360 nM
  TGI: 2840 nM
UO-31 renal
  GI50: 359 nM
  TGI: 1870 nM
ACHN renal
  GI50: 532 nM
  TGI: 2270 nM
PC-3 prostate
  GI50: 1340 nM
  TGI: 5.41 µM
MDA-MB-435
  GI50: 685 nM
  TGI: 2330 nM
T-47D breast
  GI50: 1560 nM
  TGI: 4.01 µM
NCI/ADR-RES ovarian
  GI50: 1120 nM
  TGI: 2930 nM
SW-620 colon
  GI50: 665 nM
  TGI: 3.67 µM
SR leukemia
  GI50: 297 nM
  TGI: 1350 nM
RXF 393 renal
  GI50: 1210 nM
  TGI: 2610 nM
HL-60(TB) leukemia
  GI50: 840 nM
  TGI: 3.61 µM
HOP-62 NSCLC
  GI50: 1140 nM
  TGI: 2590 nM
CCRF-CEM leukemia
  GI50: 1230 nM
  TGI: 15.7 µM
OVCAR-3 ovarian
  GI50: 1220 nM
  TGI: 3.22 µM
A498 renal
  GI50: 353 nM
  TGI: 4.45 µM
SF-539 CNS
  GI50: 1720 nM
  TGI: 8.33 µM
COLO 205 colon
  GI50: 820 nM
  TGI: 2160 nM
UACC-257 melanoma
  GI50: 987 nM
  TGI: 2650 nM
BT-549 breast
  GI50: 1710 nM
  TGI: 8.19 µM
MALME-3M melanoma
  GI50: 1200 nM
  TGI: 3.03 µM
M14 melanoma
  GI50: 1220 nM
  TGI: 2610 nM
KM12 colon
  GI50: 1320 nM
  TGI: 4.54 µM
NCI-H460 lung
  GI50: 367 nM
  TGI: 1720 nM
SF-268 CNS
  GI50: 1520 nM
  TGI: 7.83 µM
RPMI-8226 leukemia
  GI50: 984 nM
  TGI: 3.9 µM
MCF7 breast
  GI50: 471 nM
  TGI: 3.44 µM
EKVX NSCLC
  GI50: 1400 nM
  TGI: 6.35 µM
K-562 leukemia
  GI50: 847 nM
  TGI: 7.83 µM
MOLT-4 leukemia
  GI50: 357 nM
  TGI: 5.18 µM
HCT-116 colon
  GI50: 380 nM
  TGI: 1700 nM
DU-145 prostate
  GI50: 1050 nM
  TGI: 2940 nM
A549 NSCLC
  GI50: 425 nM
  TGI: 1900 nM
SK-MEL-5 melanoma
  GI50: 1030 nM
  TGI: 2200 nM
HT29 colon
  GI50: 530 nM
  TGI: 2340 nM
